Ends that are not written are not given here.

Experiment [1] concerns Gram-positive and Gram-negative bacteria representative of the ESKAPE group. Format: cell-based. The conditions noted are these: average over Gram-positive and Gram-negative ATCC strains of the ESKAPE group. As for the experimental part:
(§1) The nine AMPs identified in the initial screening were evaluated at concentrations between 1.56–200 µM, against E. coli ATCC® 25922, S. aureus ATCC® 29213, E. faecalis ATCC® 49532, P. aeruginosa ATCC® 9027, and K. pneumoniae ATCC® BAA-1705 (Supplementary Figures S2–S6). […] Only PvAMP66 and PvAMP172 reached the MBC for S. aureus at 50 µM and 100 µM, respectively (Table 2).
The evaluation of the antimicrobial activity of the peptides was conducted using the CLSI’s broth microdilution method for bacterial susceptibility testing. For the screening phase, peptides were evaluated at a single 30 μM concentration, in triplicate and in three independent assays, against the E. coli ATCC® 8739, E. coli ATCC® 25922, S. aureus ATCC® 6538, or S. aureus ATCC® 29213 reference USP and CLSI strains. […] Following this, the bacteria were suspended in Mueller-Hinton broth up to a concentration of approximately 1.50 × 10^8 CFU/mL, as measured by optical density at 600 nm between 0.06 to 0.11 (0.5 McFarland standard), in a Multiskan SkyHigh spectrophotometer (ThermoFisher Scientific, Waltham, MA, USA). […] The plate was incubated for 24 h at 37 °C (BE 500, Memmert GmbH, Büchenbach, Germany) and optical density was measured at 600 nm in a Multiskan SkyHigh spectrophotometer (ThermoFisher Scientific, Waltham, MI, USA). […]

The next experiment relates to P. aeruginosa ATCC® 9027. The class given is cell-based, Pseudomonas aeruginosa. As for the experimental part: as §1
The evaluation of the antimicrobial activity of the peptides was conducted using the CLSI’s broth microdilution method for bacterial susceptibility testing. For the screening phase, peptides were evaluated at a single 30 μM concentration, in triplicate and in three independent assays, against the E. coli ATCC® 8739, E. coli ATCC® 25922, S. aureus ATCC® 6538, or S. aureus ATCC® 29213 reference USP and CLSI strains. For the determination of MIC, MBC, or IC50, peptides or antibiotics were evaluated in concentrations between 1.56–200 µM. These evaluations were conducted in triplicate and in three independent assays, against the E. coli ATCC® 25922, S. aureus ATCC® 29213, E. faecalis ATCC® 49532, P. aeruginosa ATCC® 9027, and K. pneumoniae ATCC® BAA-1705, or the clinically isolated MDR strain. In detail, 1 mL of a glycerol stock solution of the ATCC® or clinically isolated bacterial strain was added to 9 mL of Mueller-Hinton Broth and incubated for 18 h, 180 rpm and 37 °C (Incubator 1000, Heidolph Instruments, Schwabach, Germany). After the incubation, 1 mL of the previous solution was transferred to a new recipient containing 9 mL of fresh Mueller-Hinton broth and incubated for 4 h, 180 rpm and 37 °C (Incubator 1000, Heidolph Instruments, Schwabach, Germany). During the second incubation, the peptides or the antibiotics were dissolved in PBS pH 7.20 in concentrations between 19.53–2500 µM (MC5 Micro Balance, Sartorius AG, Göttingen, Germany). An amount of 10 µL of either peptide or antibiotic was dispensed in triplicate in 96-well flat bottom culture plates, along with 10 µL of PBS (Negative activity control), BTM-P1 (Positive activity control), or 10 µL of Mueller-Hinton broth (Blank); then, 110 µL of Mueller-Hinton broth was poured in all wells. Following this, the bacteria were suspended in Mueller-Hinton broth up to a concentration of approximately 1.50 × 10^8 CFU/mL, as measured by optical density at 600 nm between 0.06 to 0.11 (0.5 McFarland standard), in a Multiskan SkyHigh spectrophotometer (ThermoFisher Scientific, Waltham, MA, USA). Amounts of 5 µL of the 1.50 × 10^8 CFU/mL suspension were added to each well (except for the blank) for a final well concentration of approximately 6 × 10^6 CFU/mL. The plate was incubated for 24 h at 37 °C (BE 500, Memmert GmbH, Büchenbach, Germany) and optical density was measured at 600 nm in a Multiskan SkyHigh spectrophotometer (ThermoFisher Scientific, Waltham, MI, USA). Following the measurement of optical density, plates were visually inspected to determine the MIC. Subsequently, 100 µL of the concentration associated to the MIC and 100 µL of the next higher concentration were added to Petri dishes containing Mueller-Hinton Agar. The dishes were then incubated for 24 h at 37 °C (BE 500, Memmert GmbH, Büchenbach, Germany). After incubation, the Petri dishes were visually inspected, and the MBC was determined in the absence of growth. IC50 values were interpolated from regressions with correlation values above 0.70. Growth inhibition percentages were calculated as follows: Growth inhibition %=1−AbsPEPTIDE or ANTIBIOTIC−Median AbsBLANK/Median AbsPBS−Median AbsBLANK×100

For WKKIKKFF-NH2 [PvAMP66], the “average MIC” value in experiment [1] is on record as 46.87 µM. This substance also registered an MIC against P. aeruginosa ATCC® 9027 (1.56–200 µM, 24 h 37 °C, visual inspection, triplicate, three independent assays) of 12.5 µM. Moreover, the concentration for half-maximal inhibition (IC50) in the experiment with P. aeruginosa ATCC® 9027 (growth inhibition OD600, 95% confidence interval in parentheses) turned out to be 12.7 µM. In addition, the MBC against P. aeruginosa ATCC® 9027 (plating on Mueller-Hinton agar, absence of growth) was 12.5 µM.

What is called MIC is the lowest concentration that inhibits growth of the organism. The IC50 is the point on the concentration scale where inhibition reaches its midpoint. The MBC is the lowest tested concentration that kills the bacteria rather than only halting them. Low readings indicate greater bactericidal potency, high ones weaker bactericidal potency.

These data come from PMC10812672, “Short Antimicrobial Peptide Derived from the Venom Gland Transcriptome of Pamphobeteus verdolaga Increases Gentamicin Susceptibility of Multidrug-Resistant Klebsiella pneumoniae” (Antibiotics, 2023).
